Assay type in all cases: cell-based, Human
Assay [1] has as its system U2OS cells. Description: DR-GFP assay of HR-mediated repair. As to the method:
(§1) Human U2OS, HCT116, hTERT RPE-1, HEK293T, HeLa, U87, T98G, A2780, and human skin fibroblast cells (GM08398 and GM18366) were grown in DMEM media supplemented with 10% bovine calf serum, penicillin/streptomycin and non-essential amino acids. SV40 large T antigen transformed hTERT RPE-1 cells were generated by infecting hTERT RPE-1 cells with a SV40 large T antigen (SV40 LT)-expressing retrovirus and were selected using 500 μg/ml G418. The stable SV40 large T antigen transformed hTERT RPE-1 cell line was then maintained in culture media supplemented 500 μg/ml G418. For chronic treatment with ATR inhibitor (ATRi, VE-821) or ATM inhibitor (ATMi, KU-55933), cells were maintained in media with 5 μM ATR or ATM inhibitor respectively for 8 days before cells were subjected to western blot analysis, proteomic analysis, DR-GFP/EJ5-GFP assay or immunofluorescent staining. For CHK1 inhibitor (UCN-01), cells were treated for 5 days with 0.2 μM of inhibitor before the analysis. Primary human fibroblast cells from control subjects (GM08398) and patients with Seckel syndrome (GM18366, ATR-defective) were obtained from Coriell Institute for Medical Research, Camden, N.J.
For the DR-GFP assay, cells (U2OS, HCT116, hTERT RPE-1, HEK293T, HeLa, U87, T98G, A2780, 293-T-REX-E2F6 cells and SV40 large T antigen transformed hTERT RPE-1) were transfected with the mCherry plasmid or DR-GFP reporter plasmid (pDR-GFP; addgene plasmid 26475) together with a plasmid coding for I-SceI (pCBASceI; addgene plasmid 26477) or DR-GFP reporter plasmid together with an empty plasmid pCAGGS. Two days after transfection, cells were trypsinized, resuspended in PBS and then analyzed by flow cytometry using FACSAria Fusion or Accuri C6 cytometer (BD). In each experiment, the percentage of GFP-positive cells from the sample transfected with empty plasmid pCAGGS was subtracted from the percentage of GFP-positive cells in the sample transfected with I-SceI. The GFP percentage was then normalized by the mCherry transfection efficiency. Each graph was plotted based on at least 3 independent experiments showing mean±SEM (N≥3). For the EJ5-GFP assay, EJ5-GFP reporter plasmid (pimEJ5GFP, addgene plasmid 44026) was used instead of DR-GFP reporter plasmid and the assay was performed as described for DR-GFP assay.

Assay [2] concerns U2OS cells. The assay can be described thus: Immunoblotting of HR factor abundance. The following applies: CHK1 inhibitor 0.2 μM, 5 days. As to the method: FIG. 5A is a schematic diagram of the SILAC/MS experiment. FIG. 5B is a quadrant diagram of the SILAC/MS experiment. Each dot represents a different identified protein. Proteins with abundance reduced two-fold or more after ATRi treatment are shown in the upper-left corner (white quadrant). FIG. 5C is a WB analysis of U2OS cells after 8 days of chronic treatment with 5 μM of ATRi or ATMi. FIG. 5D is a time course WB analysis of U2OS cells during chronic treatment with 5 μM ATRi. FIG. 5E is a WB analysis of U2OS cells at distinct cell cycle stages. Cells were treated with 1 mM hydroxyurea (HU) or 50 ng/ml nocodazole (Noc) for 24 hours. HU treated cells were released for 2.5 hours in HU-free media. FIG. 5F is a WB analysis of U2OS cells untreated or treated for 8 days with 5 μM ATRi.
as §1
(§2) Cells were harvested and lysed in modified radioimmunoprecipitation assay (RIPA) buffer (50 mM Tris-HCl pH 7.5, 150 mM NaCl, 1% tergitol, 0.25% sodium deoxycholate, 5 mM EDTA) supplemented with Complete EDTA-free protease inhibitor cocktail (Roche), 1 mM PMSF, 5 mM sodium fluoride, 10 mM β-glycerol-phosphate and 0.4 mM sodium orthovanadate. Whole cell lysates were cleared with 5 minute centrifugation at 13,000 rpm at 4° C. and mixed with 3×SDS sample buffer (bromophenol blue, stacking gel buffer, 50% glycerol, 3% SDS and 60 mM DTT). After being resolved on SDS-PAGE gels, proteins were then transferred onto polyvinylidene difluoride (PVDF) membranes and detected with designated antibodies.
On the technique in general: In western blotting, separated proteins are transferred to a membrane and probed.

The next assay relates to HCT116 cells. Description: Western blot after chronic CHK1i. The following applies: chronic CHK1 inhibition. As to the method: as §2
Assay [3] deals with U2OS cells. Description: Real time PCR of mRNA levels. The following applies: ATRi 5 μM 8 days or CHK1i 0.2 μM 5 days, normalized to GAPDH. An excerpt:
FIG. 9B is a bar graph showing the analysis of HR-mediated repair using the DR-GFP system. Relative fold change of GFP positive U2OS cells treated with CHK1i compared to DMSO treatment control. (Error bars=SEM, N=4, ****P-value<0.0001; one sample-t-test was used for the statistical analysis). FIGS. 9C-9D show a histogram showing representative FACS data (FIG. 9C) and a bar graph showing quantitation of G1, S and G2/M population for cell cycle analysis of CHK1i treated cells (FIG. 9D) (Error bars=SD, N=3). FIG. 9E are bar graphs showing real time PCR analysis of total RNA extracted from U2OS cells treated with DMSO, ATRi (5 μM for 8 days) or CHK1i (0.2 μM for 5 days). Values were normalized to GAPDH mRNA levels. (Error bars=SD, N=3). FIG. 9F is a schematic diagram showing a proposed model of how E2F transcription is regulated through ATR-CHK1 signaling. […] FIG. 9H is a bar graph showing DR-GFP analysis of 293-T-REX-E2F6 cells after 8 days of treatment with DMSO or doxycycline. (Error bars=SEM, N=4). FIG. 9I is a histogram showing cell cycle analysis of 293-T-REX-E2F6 cells after 8 days of treatment with DMSO or doxycycline. FIG. 9J is a schematic diagram showing a model depicting multiple roles of ATR in the control of HR capacity.
Cells cultured from 10 cm dish were collected and lysed in 1 ml of TRIzol (Invitrogen). Chloroform was added to the lysed sample to separate RNA. Separated RNA was precipitated by isopropyl alcohol, followed by two washes with 75% ethanol. 1 μg of extracted RNA from each sample was then reverse transcribed with Bio-Rad iScript cDNA synthesis kit. The samples (˜100 ng) were analyzed in a Roche 480 light cycler in a total of 15 μl containing SYBR green mix and primers. The values were calculated using “absolute quantification/2nd derivative max” in lightcycler 480 program and then normalized to the level of GAPDH.
On the technique in general: Quantitative PCR measures a nucleic acid by following its amplification.

The subject of assay [4] is U2OS cells. The assay can be described thus: Cell cycle analysis (propidium iodide, flow cytometry). The following applies: CHK1i 0.2 μM, 5 days. The protocol:
Cells were harvested by standard trypsinization and fixed with 70% ethanol. After fixation, cells from each sample were resuspended in PBS, permeabilized using 0.1% Triton X-100 and treated with RNase A (0.8 mg/ml). Then cells were stained with propidium iodide and analyzed by flow cytometry using FACSAria Fusion (BD) or Accuri C6 cytometer (BD) to determine the fraction of cells in different stages of the cell cycle.
In general terms: A flow cytometer gives signals particle by particle.

With `O=c1cc(-c2cccc3c2Sc2ccccc2S3)oc(N2CCOCC2)c1` [ATMi, KU-55933], the “HR-mediated repair efficiency (DR-GFP, GFP positive cells over DMSO)” value in the assay on U2OS cells [1] (5 μM, chronic 8 days) is “did not result in major changes in HR-mediated repair efficiency”.
In the case of `CN[C@@H]1C[C@H]2O[C@@](C)([C@@H]1OC)n1c3ccccc3c3c4c(c5c6ccccc6n2c5c31)C(=O)N[C@@H]4O` [CHK1i, UCN-01], the “Abundance of BRCA1, RAD51, RRM2 and E2F1 (WB)” value with U2OS cells [2] is “severely reduced”. Besides, the “Level of E2F1 and abundance of other HR proteins (WB)” value with HCT116 cells is recorded as “did not lower the level of E2F1 nor the abundance of other HR proteins”. Also, the “HR efficiency (DR-GFP)” value in the assay on U2OS cells [1] (CHK1i 0.2 μM, 5 days) is “sharp decrease in HR efficiency”. In the assay on U2OS cells [3], the “mRNA levels of BRCA1 and RAD51” value was “reduction in the mRNA levels of BRCA1 and RAD51”. The “Relative number of S phase cells” value with U2OS cells [4] is recorded as “increase in the relative number of S phase cells”.

The values above are taken from US20190365745A1, “USE OF CHRONIC TREATMENT WITH ATR INHIBITORS TO SENSITIZE CANCER CELLS TO PARP INHIBITORS” (Cornell University, priority 2018, published 2019).
